Assay results published in patent publication US4550186A, “Binuclear copper (II) carboxylates formed from amine-carboxyboranes” (Duke University, priority 1983, dated 1985).

Columns and labels:
[1] = system: CF1 male mice; assay: Mouse liver lipid content; type: in vivo; conditions: 16 days
Procedure: In CF1 male mice that had been administered test drugs for 16 days, the liver, small intestine and fecal materials (24 hr collection) were removed and a 10% homogenate in 0.25M sucrose+0.001M (ethylenedinitrilo)tetraacetic acid was prepared. An aliquot (2 ml) of the homogenate was extracted by the methods of Floch et al [J. Biol. Chem., 226, 497 (1957)] and Bligh and Dyer [Can. J. Biochem. Physiol., 37, 911 (1957)] and the number of mg of lipid weighed. The lipid was taken up in methylene chloride and the cholesterol level triglyceride levels, neutral lipid content and phospholipid content were determined.
(§1) Data are expressed in the Table 2-7 as percent of control ± the standard deviation. The probable significant level (P) between each test group and the control group was determined by the Student's "t" test.

[2] = system: Acetyl CoA synthetase; assay: In vivo liver enzyme study: acetyl CoA synthetase; set-up: species or system mouse; conditions: CF1 liver after 16 days i.p.
Procedure: (§2) In vitro enzymatic studies were determined using 10% homogenates of CF1 male mouse liver with 50-200 μM of test drugs. In vivo enzymatic studies were determined using 10% homogenates of liver from CF1 male mice obtained after administering the agents for 16 days at a dose ranging from 2.5-20 mg/kg/day intraperitoneally. The liver homogenates for both in vitro and in vivo studies were prepared in 0.25M sucrose and 0.001M (ethylenedinitrilo)tetraacetic acid. Acetyl coenzyme A synthetase and adenosine triphosphate dependent citrate lyase activities were determined spectrophotometrically at 540 nm as the hydroxylamate of acetyl coenzyme A formed after 30 min at 37° C. Mitochondrial citrate exchange was determined by the procedure of Robinson et al [Eur. J. Biochem., 216, 63 (1970)] using ^14 C-sodium bicarbonate (41 mCi/mmol) incorporated into mitochondrial ^14 C-citrate after isolating rat mitochondria (9000 g×10 min) from the homogenates. The exchanges of the ^14 C-citrate were determined after incubating the mitochondrial fraction which was loaded with labeled citrate and test drugs for 10 min. Then the radioactivity was measured in the mitochondrial and supernantant fractions in scintillation fluid and expressed as a percentage. Cholesterol side chain oxidation was determined by the method of Kritchevsky and Tepper [Artherosclerosis, 18, 93 (1973)] using (26-^14 C) cholesterol (50 mCi/mmol) and mitochondria isolated from rat liver homogenates. […] Fatty acid synthetase activity was determined by the method of Brady et al [J. Biol. Chem., 235, 3093 (1960)] using [2-^14 C] malonyl-coenzyme A (37.5 mCi/mmol) which was incorporated into newly synthesized fatty acids that were extracted with ether and counted. Acyl transferase activity was determined with glycerol-3phosphate [L-2-^3 H(N)] […] HCl and counted. Phosphatidate phosphohydrolase activity was measured as the inorganic phosphate released after 30 min from phosphatidic acid by the method of Mavis et al [J. Lipid Res., 19, 467 (1978)]. […]

[3] = system: CF1 male mice; assay: Antihyperlipidemic screen in normal mice; type: in vivo, mouse; conditions: for Serum Cholesterol / Serum Triglyceride: CF1 male mice I.P.
Procedure: Compounds to be tested were suspended in 1% carboxymethylcellulose-water and administered to CF1 male mice (~25 g) intraperitoneally for 16 days or Holtzman male rats (~350 g) orally by an intubation needle for 16 days. On days 9 or 16, blood was obtained by tail vein bleeding and the serum separated by centrifugation for 3 min. The serum cholesterol levels were determined by a modification of the Liebermann-Burchard reaction as described in Ness et al, Clin. Chim. Acta, 10, 229 (1964). Serum was also collected on day 16 and the triglyceride content was determined by a commercial kit, The Fisher Hycel Triglyceride Test Kit.
as §1

[4] = target: T1, Fatty Acid Synthetase (Mus musculus, UniProt P19096); assay: In vivo liver enzyme study: fatty acid synthetase; conditions: CF1 liver after 16 days i.p.
T1 construct: 10% homogenates of CF1 male mouse liver; from tissue; host or cells: CF1 male mouse liver, 10% homogenate
T1 sequence (P19096 whole entry): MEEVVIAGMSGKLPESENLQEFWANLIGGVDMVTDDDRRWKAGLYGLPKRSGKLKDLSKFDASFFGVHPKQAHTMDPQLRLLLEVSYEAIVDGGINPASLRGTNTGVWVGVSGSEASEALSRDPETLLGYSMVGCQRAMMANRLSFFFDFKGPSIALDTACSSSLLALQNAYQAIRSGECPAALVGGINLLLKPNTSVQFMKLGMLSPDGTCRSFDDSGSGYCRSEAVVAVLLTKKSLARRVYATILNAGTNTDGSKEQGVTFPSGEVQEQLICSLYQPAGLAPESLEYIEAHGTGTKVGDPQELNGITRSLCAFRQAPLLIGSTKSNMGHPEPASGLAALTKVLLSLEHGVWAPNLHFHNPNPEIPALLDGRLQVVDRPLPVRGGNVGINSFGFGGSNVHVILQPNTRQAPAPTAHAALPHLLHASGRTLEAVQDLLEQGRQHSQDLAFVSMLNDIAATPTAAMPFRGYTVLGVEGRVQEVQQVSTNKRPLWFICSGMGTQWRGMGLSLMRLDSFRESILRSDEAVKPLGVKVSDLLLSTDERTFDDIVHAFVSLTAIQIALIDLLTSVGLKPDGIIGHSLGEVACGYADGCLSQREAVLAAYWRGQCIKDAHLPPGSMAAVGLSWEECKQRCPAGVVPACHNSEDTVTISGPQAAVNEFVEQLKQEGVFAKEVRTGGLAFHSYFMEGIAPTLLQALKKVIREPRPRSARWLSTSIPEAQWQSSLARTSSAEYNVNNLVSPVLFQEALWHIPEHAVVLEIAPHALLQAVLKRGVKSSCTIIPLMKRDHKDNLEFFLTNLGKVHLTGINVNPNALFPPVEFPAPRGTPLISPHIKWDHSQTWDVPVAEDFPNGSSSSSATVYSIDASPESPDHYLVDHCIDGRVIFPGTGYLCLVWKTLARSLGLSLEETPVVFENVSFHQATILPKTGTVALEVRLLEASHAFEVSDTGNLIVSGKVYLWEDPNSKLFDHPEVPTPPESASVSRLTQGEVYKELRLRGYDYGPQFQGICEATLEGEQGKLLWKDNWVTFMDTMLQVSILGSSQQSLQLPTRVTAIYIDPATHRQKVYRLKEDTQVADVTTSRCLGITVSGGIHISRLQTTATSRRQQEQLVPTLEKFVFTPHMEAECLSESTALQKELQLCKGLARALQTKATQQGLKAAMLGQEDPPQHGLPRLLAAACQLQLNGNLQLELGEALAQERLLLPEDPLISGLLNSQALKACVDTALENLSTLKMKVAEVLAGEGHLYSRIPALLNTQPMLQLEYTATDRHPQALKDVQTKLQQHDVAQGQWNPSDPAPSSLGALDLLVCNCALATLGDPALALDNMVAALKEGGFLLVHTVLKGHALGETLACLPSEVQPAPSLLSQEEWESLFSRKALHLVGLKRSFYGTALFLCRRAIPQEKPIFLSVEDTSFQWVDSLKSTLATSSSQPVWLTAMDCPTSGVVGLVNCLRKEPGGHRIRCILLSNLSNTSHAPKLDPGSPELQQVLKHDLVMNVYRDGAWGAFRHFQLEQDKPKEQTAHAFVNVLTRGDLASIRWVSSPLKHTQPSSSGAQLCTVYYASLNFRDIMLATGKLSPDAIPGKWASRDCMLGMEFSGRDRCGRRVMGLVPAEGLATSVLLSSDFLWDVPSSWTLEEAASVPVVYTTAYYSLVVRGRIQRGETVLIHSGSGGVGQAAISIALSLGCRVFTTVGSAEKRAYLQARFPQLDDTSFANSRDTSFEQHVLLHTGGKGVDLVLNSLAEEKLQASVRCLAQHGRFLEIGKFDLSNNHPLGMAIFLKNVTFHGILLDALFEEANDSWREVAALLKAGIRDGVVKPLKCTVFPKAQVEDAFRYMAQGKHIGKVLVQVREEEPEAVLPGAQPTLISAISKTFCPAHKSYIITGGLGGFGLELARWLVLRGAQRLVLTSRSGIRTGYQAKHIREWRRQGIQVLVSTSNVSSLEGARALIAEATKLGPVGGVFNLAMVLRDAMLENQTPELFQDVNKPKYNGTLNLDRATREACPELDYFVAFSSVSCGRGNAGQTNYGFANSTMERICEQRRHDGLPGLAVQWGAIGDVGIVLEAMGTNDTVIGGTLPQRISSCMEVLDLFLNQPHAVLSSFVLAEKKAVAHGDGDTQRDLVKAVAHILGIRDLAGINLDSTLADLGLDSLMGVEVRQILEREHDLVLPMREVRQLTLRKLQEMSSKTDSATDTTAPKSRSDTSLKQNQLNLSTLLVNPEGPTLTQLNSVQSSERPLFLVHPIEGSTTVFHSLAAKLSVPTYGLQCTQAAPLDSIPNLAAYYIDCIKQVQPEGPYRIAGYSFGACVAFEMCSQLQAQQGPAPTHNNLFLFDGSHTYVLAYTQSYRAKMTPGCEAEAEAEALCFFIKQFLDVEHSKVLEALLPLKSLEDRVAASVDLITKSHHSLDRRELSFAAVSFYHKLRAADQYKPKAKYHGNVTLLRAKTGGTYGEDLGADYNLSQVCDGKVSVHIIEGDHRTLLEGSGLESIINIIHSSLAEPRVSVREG
Procedure: as §2

{Cu[(CH3)3 N.BH2 CO2 ]2.(CH3)3 N.BH2 COOH} [Compound I]
Cholesterol ([1]; 2.5 mg/kg): 71 ± 6% of control
Mg of Lipid ([1]; 2.5 mg/kg): 82 ± 5% of control
Neutral Lipids ([1]; 2.5 mg/kg): 79 ± 5% of control
Phospholipids ([1]; 2.5 mg/kg): 67 ± 6% of control
Protein ([1]; 2.5 mg/kg): 105 ± 6% of control
Triglycerides ([1]; 2.5 mg/kg): 40 ± 3% of control
Cholesterol ([1]; 5.0 mg/kg): 74 ± 7% of control
Mg of Lipid ([1]; 5.0 mg/kg): 85 ± 6% of control
Neutral Lipids ([1]; 5.0 mg/kg): 86 ± 5% of control
Phospholipids ([1]; 5.0 mg/kg): 92 ± 7% of control
Protein ([1]; 5.0 mg/kg): 92 ± 5% of control
Triglycerides ([1]; 5.0 mg/kg): 38 ± 4% of control
Cholesterol ([1]; 10.0 mg/kg): 77 ± 7% of control
Mg of Lipid ([1]; 10.0 mg/kg): 95 ± 6% of control
Neutral Lipids ([1]; 10.0 mg/kg): 87 ± 4% of control
Phospholipids ([1]; 10.0 mg/kg): 152 ± 8% of control
Protein ([1]; 10.0 mg/kg): 101 ± 8% of control
Triglycerides ([1]; 10.0 mg/kg): 36 ± 5% of control
Acetyl CoA synthetase ([2]; 2.5 mg/kg): 62 ± 6% of control
Acetyl CoA synthetase ([2]; 5.0 mg/kg): 77 ± 7% of control
Acetyl CoA synthetase ([2]; 10 mg/kg): 73 ± 7% of control
Serum Cholesterol ([3]; 2.5 mg/kg, Day 9): 61 ± 5 % Control
Serum Cholesterol ([3]; 2.5 mg/kg, Day 16): 62 ± 6 % Control
Serum Triglyceride ([3]; 2.5 mg/kg, Day 16): 50 ± 6 % Control
Serum Cholesterol ([3]; 5.0 mg/kg, Day 9): 67 ± 6 % Control
Serum Cholesterol ([3]; 5.0 mg/kg, Day 16): 63 ± 5 % Control
Serum Triglyceride ([3]; 5.0 mg/kg, Day 16): 69 ± 6 % Control
Serum Cholesterol ([3]; 10.0 mg/kg, Day 9): 71 ± 6 % Control
Serum Cholesterol ([3]; 10.0 mg/kg, Day 16): 63 ± 5 % Control
Serum Triglyceride ([3]; 10.0 mg/kg, Day 16): 47 ± 5 % Control
Serum Cholesterol ([3]; 20.0 mg/kg, Day 9): 52 ± 5 % Control
Serum Cholesterol ([3]; 20.0 mg/kg, Day 16): 53 ± 4 % Control
Serum triglyceride levels reduced ([3]; mice, 2.5 mg/kg/day): greater than 50%
Serum triglyceride levels reduced ([3]; mice, 10 mg/kg/day): greater than 50%
serum triglyceride reduction ([3]; mice, 10 mg/kg/day): 53%
reduction of serum cholesterol (maximal effect) ([3]; mice, 20 mg/kg/day): 47%
Fatty Acid Synthetase ([4]; 2.5 mg/kg): 102 ± 7% of control
Fatty Acid Synthetase ([4]; 5.0 mg/kg): 90 ± 6% of control
Fatty Acid Synthetase ([4]; 10 mg/kg): 94 ± 5% of control
